# Results published in patent publication US20160279135A1, “THERAPIES FOR TREATING MYELOPROLIFERATIVE DISORDERS” (Gilead Sciences, Inc., priority 2013, published 2016).
# Several values for one entry are separate records, joined by “and”; a condition that tells them apart may be missing. Equal entries are not always repeated.
# Experiments:
# [1] = system: pS6RP Ser235/236; assay: flow cytometry of S6RP phosphorylation in CD34+ progenitor cells from MF patients; assay type: cell-based, human; settings: 2 h, MF progenitor cells
# Description: (§1) In this example, PBMCs were isolated from whole blood of myelofibrosis (MF) patients who had not received treatments (i.e. naïve patients) or received ruxolitinib (i.e. rux-treated patients). The cells were treated with 0.02, 0.2, or 2.0 μM of Compound B or vehicle (0.1% DMSO in 0.1% FBS/RPMI) for 2 hours at 37° C. The cells were then fixed, permeabilized, and stained for FACS analysis. Antibodies specific to p-AKT Ser473 and pS6RP Ser235/236 were used to detect AKT phosphorylation (p-AKT) and S6RP phosphorylation (p-S6RP) in CD34^+/CD3^−/CD14^−/CD19/CD66^− (BD Biosciences) gated cells using flow cytometry. The percentage of basal (i.e. untreated with TPO) AKT and S6RP phosphorylation were normalized to vehicle control (i.e. “no TPO” values shown in Table 2). A two-tailed paired t-test (GraphPad Prism) was used to calculate p-values. Values of p<0.05 were considered significant.
# (§2) Also, PBMC cells were treated with Compound B and with TPO as described above. The percentage of TPO-activated AKT and S6RP phosphorylation were normalized to those of TPO-treated vehicle. […] Also, the inhibition to PI3K signaling was dose-dependent to Compound B.
# (§3) Similar studies were conducted with PI3K inhibitors Compounds C and D. PBMC from MF patients had received ruxolitinib (rux) and MF patient had received Compound A. The cells were treated with Compounds C or D at 0, 20.0, 200.0, 2000.0 nM for 2 hours at 37° C. Cells were treated with TPO for 10 minutes. The percentage of basal p-AKT and p-S6RP levels were normalized to vehicle control and those of TPO-treated were normalized to TPO-treated vehicle control. The PI3K inhibitors Compounds C and D had the chemical names of (S)-2-(1-((9H-purin-6-yl)amino)ethyl)-6-fluoro-3-phenylquinazolin-4(3H)-one and (S)-2,4-diamino-6-(((5-chloro-8-fluoro-4-oxo-3-(pyridine-3-yl)-3,4-dihydroquinazolin-2-yl)(cyclopropyl)methyl)amino)pyrimidine-5-carbonitrile, respectively.
# [2] = system: p-AKT Ser473; assay: flow cytometry of AKT phosphorylation in CD34+ progenitor cells from MF patients; assay type: cell-based, human; settings: 2 h, MF progenitor cells
# Description: as §1, §2, §3
# [3] = clinical; settings: human, in vivo
# Description: For in vitro or in vivo studies, the effect amount of Compounds A, B, C, D, E, or ruxolinitib may be adjusted according to the experimental condition. Similarly, the effect amount of Compounds D1, D2, D3, D4, D5, D6, D7, D8, D9, E1, E2, E3, E4, E5, E6, E7, E8, E9, or F, may be adjusted according to the experimental condition for in vitro or in vivo studies. For example, compounds may be used in the amount of 0.001, 0.002, 0.003, 0.004, 0.005, 0.006, 0.007, 0.008, 0.009, 0.01, 0.02, 0.03, 0.04, 0.05, 0.06, 0.07, 0.08, 0.09, 0.1, 0.2, 0.3, 0.4, 0.5, 0.6, 0.7, 0.8, 0.9, 1.0, 1.5, 2.0, 2.5, 3.0, 3.5, 4.0, 5.0, 6.0, 7.0, 8.0, 9.0, or 10.0 μM. In some studies, the in vitro doses of the compounds may be calculated to correspond to the clinical doses of the compounds. The calculation may consider various factors, such as protein binding and plasma concentration. […] It is understood that the in vitro doses may differ, depend on the assay condition and other calculation factors, and that the clinical doses may differ depend on the disease indication and the patient condition.
# (§4) In this study, PBMCs were isolated from the whole blood from five MF patients receiving chronic ruxolitinib treatment (rux 1-rux 5). The cells were treated with either vehicle, ruxolitinib, and/or Compound B for 2 hours then stimulated with TPO (50 ng/mL) for 10 minutes. Ruxolitinib at the dose of 1 or 20 nM and Compound B at the dose of 45, 200, or 700 nM were used.
# Next, Pfeiffer cells were treated with IL6 (0 or 3 ng/mL), Compound A (0, 136, 272, or 695 nM), and/or Compound B (0, 74, 200, or 421 nM) (n=4 per group) for 96 hours. The doses in this assay may correspond to those used in a clinical setting. […] In addition, the in-vitro dose of 136 nM Compound A may correspond to the potential Caverage detected in patients receiving Compound A at 300 mg once a day.
# [4] = system: p-STAT5; assay: flow cytometry of p-STAT5 in TPO-stimulated CD34+ cells from MF patients on chronic ruxolitinib (Example 8); assay type: cell-based, human; settings: 2 h, then TPO 50 ng/mL, one value per patient, TPO vehicle = 100
# Description: as §4
# (§5) The treated cells were then fixed, permeabilized and stained for FACS analysis using FACSCalibur analyzed using BD FACSDiva software.
# [5] = system: p-S6RP; assay: flow cytometry of p-S6RP in TPO-stimulated CD34+ cells from MF patients on chronic ruxolitinib (Example 8); assay type: cell-based, human; settings: for percentage of the p-S6RP levels: 2 h, then TPO 50 ng/mL, one value per patient, TPO vehicle = 100
# Description: as §4, §5
# [6] = system: pSTAT3 (Tyr705); assay: Western blot of pSTAT3 in IL6-stimulated Pfeiffer cells; assay type: cell-based; settings: vs 0 ng/mL IL6, normalized to total STAT3, n=1
# Description: Pfeiffer cells were stimulated for 4 hours with 0, 1, 3, or 10 ng/mL of interleukin 6 (IL6) (n=1 per group) to activate STAT3 (i.e. increase the levels of pSTAT3). The cells were harvested, lysed and analyzed by Western blot. Antibodies specific for pSTAT3 (Tyr705) and total STAT3 were used to detect the levels of pSTAT3 and total STAT3, respectively. Raw pSTAT3 levels were quantified using densitometry software (Image Studio) and normalized to total STAT3 levels.
# [7] = system: Pfeiffer cells; assay: CellTiter-Glo cell viability of Pfeiffer cells with IL6; assay type: cell-based; settings: Homo sapiens, 96 h, IL6 3 ng/mL, n=4, read-out: percentage of viable Pfeiffer cells, AVG
# Description: Next, Pfeiffer cells were treated with IL6 (0 or 3 ng/mL), Compound A (0, 136, 272, or 695 nM), and/or Compound B (0, 74, 200, or 421 nM) (n=4 per group) for 96 hours.
# Cellular viability was determined using the CellTiter-Glo Luminescent Cell Viability Assay (Promega). The percentage of viable cells was normalized to the groups that were not treated with Compound A or Compound B, and standard deviation was calculated.
# [8] = 20 nM, Basal, Compound A-treated Cells, vehicle = 100
# [9] = 20 nM, Basal, Rux-treated Cells, vehicle = 100
# [10] = 20 nM, TPO 10 min, Compound A-treated Cells, TPO-treated vehicle = 100
# [11] = 20 nM, TPO 10 min, Rux-treated Cells, TPO-treated vehicle = 100
# [12] = 200 nM, Basal, Compound A-treated Cells, vehicle = 100
# [13] = 200 nM, Basal, Rux-treated Cells, vehicle = 100
# [14] = 200 nM, TPO 10 min, Compound A-treated Cells, TPO-treated vehicle = 100
# [15] = 200 nM, TPO 10 min, Rux-treated Cells, TPO-treated vehicle = 100
# [16] = 2000 nM, Basal, Compound A-treated Cells, vehicle = 100
# [17] = 2000 nM, Basal, Rux-treated Cells, vehicle = 100
# [18] = 2000 nM, TPO 10 min, Compound A-treated Cells, TPO-treated vehicle = 100
# [19] = 2000 nM, TPO 10 min, Rux-treated Cells, TPO-treated vehicle = 100
Compound,"percentage of p-S6RP (pS6) [1, 8]","percentage of p-S6RP (pS6) [1, 9]","percentage of p-S6RP (pS6) [1, 10]","percentage of p-S6RP (pS6) [1, 11]","percentage of p-S6RP (pS6) [1, 12]","percentage of p-S6RP (pS6) [1, 13]","percentage of p-S6RP (pS6) [1, 14]","percentage of p-S6RP (pS6) [1, 15]","percentage of p-S6RP (pS6) [1, 16]","percentage of p-S6RP (pS6) [1, 17]","percentage of p-S6RP (pS6) [1, 18]","percentage of p-S6RP (pS6) [1, 19]","percentage of p-AKT (pAKT) [2, 8]","percentage of p-AKT (pAKT) [2, 9]","percentage of p-AKT (pAKT) [2, 10]","percentage of p-AKT (pAKT) [2, 11]","percentage of p-AKT (pAKT) [2, 12]","percentage of p-AKT (pAKT) [2, 13]","percentage of p-AKT (pAKT) [2, 14]","percentage of p-AKT (pAKT) [2, 15]",other results
"C[C@H](Nc1ncnc2[nH]cnc12)c1nc2ccc(F)cc2c(=O)n1-c1ccccc1 [Compound C, (S)-2-(1-((9H-purin-6-yl)amino)ethyl)-6-fluoro-3-phenylquinazolin-4(3H)-one]",82%,65%,66%,84%,75%,59%,70%,62%,53%,43%,36%,42%,89%,88%,65%,65%,82%,90%,59%,53%,"percentage of p-AKT (pAKT) [2, 16]: 75%; percentage of p-AKT (pAKT) [2, 17]: 75%; percentage of p-AKT (pAKT) [2, 18]: 43%; percentage of p-AKT (pAKT) [2, 19]: 24%"
"N#CC[C@H](C1CCCC1)n1cc(-c2ncnc3[nH]ccc23)cn1 [ruxolitinib, reference compound]",,,,,,,,,,,,,,,,,,,,,"in vitro dose corresponding to the Cmin [3]: 0.001 µM; Cmax ([3]; 15 mg): 0.02 µM; percentage of the p-STAT5 levels ([4]; ruxolitinib 1 nM): 83% and 94% and 97% and 68% and 91%; percentage of the p-STAT5 levels ([4]; ruxolitinib 20 nM): 77% and 63% and 74% and 71% and 62%; inhibition at 0.02 µM ([5]; Homo sapiens, ruxolitinib 20 nM alone, TPO-stimulated cells, read-out: p-S6RP levels inhibited or reduced by): 69%; pS6RP levels inhibited ([5]; ruxolitinib 1 nM alone, TPO-stimulated cells): not inhibited; percentage of the p-S6RP levels ([5]; ruxolitinib 1 nM): 101% and 78% and 92% and 129% and 75%; percentage of the p-S6RP levels ([5]; ruxolitinib 20 nM): 42% and 25% and 22% and 34% and 28%"
"N#Cc1c(N)nc(N)nc1N[C@H](c1nc2c(F)ccc(Cl)c2c(=O)n1-c1cccnc1)C1CC1 [Compound D, (S)-2,4-diamino-6-(((5-chloro-8-fluoro-4-oxo-3-(pyridine-3-yl)-3,4-dihydroquinazolin-2-yl)(cyclopropyl)methyl)amino)pyrimidine-5-carbonitrile]",58%,58%,74%,48%,48%,50%,55%,39%,18%,39%,25%,19%,87%,83%,49%,58%,57%,85%,41%,50%,"percentage of p-AKT (pAKT) [2, 16]: 60%; percentage of p-AKT (pAKT) [2, 17]: 76%; percentage of p-AKT (pAKT) [2, 18]: 19%; percentage of p-AKT (pAKT) [2, 19]: 39%"
IL6: interleukin 6 (IL6) used to activate STAT3 in Pfeiffer cells,,,,,,,,,,,,,,,,,,,,,"increase of pSTAT3 levels (STAT3 activation) ([6]; 1 ng/mL IL6, 4 h): 2.8 fold; increase of pSTAT3 levels (STAT3 activation) ([6]; 3 ng/mL IL6, 4 h): 3.8 fold; increase of pSTAT3 levels (STAT3 activation) ([6]; 10 ng/mL IL6, 4 h): 2.5 fold"
"N#CCNC(=O)c1ccc(-c2ccnc(Nc3ccc(N4CCOCC4)cc3)n2)cc1 [Compound A, N-(cyanomethyl)-4-[2-(4-morpholinoanilino)pyrimidin-4-yl]benzamide]",,,,,,,,,,,,,,,,,,,,,viability at 0.136 µM ([7]; 136 nM Compound A): 104%; viability at 0.272 µM ([7]; 272 nM Compound A): 99%; viability at 0.695 µM ([7]; 695 nM Compound A): 73%; Cmax ([3]; 300 mg): 0.695 µM
